In patent US20250084095A1, “Aminopyrimidine Derivatives as Cyclin-Dependent Kinase Inhibitors” (Accutar Biotechnology Inc., priority 2023, published 2025):
pIC50: −log10 of the molar value.

Experiments:
[1] = system: Phospho-Rb (Ser807/811) in MCF7 cells; experiment: Phospho-Rb expression inhibition in MCF7 cells quantified by in cell Western; assay type: cell-based, human; conditions: Homo sapiens, MCF7, 24 h, 24 hours, in cell Western, read-out: MCF7 pRb IC50
Experimental: MCF7 cells were obtained from American Type Culture Collection (ATCC, HTB-22). MCF7 cells were plated in 96-well plates (VWR #10062-900, or Coming #3904) in 90 μL culture medium at a density of 20,000 cells/well in the DMEM growth medium containing 10%/FBS and 1% Penicillin Streptomycin, and then incubated at 37° C. overnight. The following day, the test compound was administered to the cells by using 1000× compound stock solution prepared in DMSO at various concentrations. 1000× compound stock solution was first diluted in culturing medium to 10×, then 10 μL compound medium was added to each well in the cell plates. After administration of the compound, the cells were then incubated at 37° C. for 24 h. Upon completion, the cells were washed with PBS briefly. 150 μL/well of 4% formaldehyde was added and the plates were incubated at room temperature for 20 min. The cells were washed with PBS briefly, and permeabilized with 150 µL/well of ice cold 100% methanol for 10 min. The cells were washed with PBS briefly and blocked with 100 µL/well LI-COR blocking buffer for 1 h at room temperature with gentle shaking. The cells were incubated overnight at 4° C. with 50 μL primary antibody rabbit anti-Phospho-Rb (Ser807/811) (1: 500, Cell Signaling, #8516) and anti-Rb (1:200, Santa Cruz, sc-73598) diluted in Intercept Blocking Buffer (LI-COR, #927-60001) containing 0.1% Tween 20. The next day, the cells were washed with 200 μL PBS containing 0.1% Tween 20, 5×5 mins at room temperature with gentle shaking, and incubated with 50 μL secondary antibody, IRDye® 800CW Goat anti-Rabbit IgG (1:1000, LI-COR, #926-32211) and FRDye® 680RD Goat anti-Mouse IgG (1:1000, LI-COR, #926-68070), in LI-COR […] blocking buffer with 0.2% Tween 20 for 1 h at room temperature with gentle shaking. The cells were washed with 200 μL PBS containing 0.1% Tween 20, 5×5 min at room temperature with gentle shaking. The cells were washed with PBS for 5 mins. 100 μL fresh PBS was added to each well and the plates were imaged on a LI-COR Odyssey CLX plate reader.
MCF7 cells were obtained from American Type Culture Collection (ATCC, HTB-22). SW1573-CDK6 KO and SW1573-CDK4 KO cells were generated by the CRISPR-Cas9 technology. All cells were plated in 96-well plates (VWR #10062-900, or Corning #3904) in 90 uL culture medium at a density of 20,000 cells/well in the respective growth medium containing 10% FBS and 1% Penicillin Streptomycin, and then incubated at 37° C. overnight. The following day, the test compound was administered to the cells by using 1000× compound stock solution prepared in DMSO at various concentrations. 1000× compound stock solution was first diluted in culturing medium to 10×, then 10 uL compound medium was added to each well in the cell plates. After administration of the compound, the cells were then incubated at 37° C. for 24 hours. Upon completion, the cells were washed with PBS briefly. 150 uL/well of 4% formaldehyde was added and the plates were incubated at room temperature for 20 mins. The cells were washed with PBS briefly, and permeabilized with 150 uL/well of ice cold 100% methanol for 10 mins. The cells were washed with PBS briefly and blocked with 100 uL/well LI-COR blocking buffer for 1 hr at room temperature with gentle shaking. The cells were incubated overnight at 4° C. with 50 uL primary antibody rabbit anti-Phospho-Rb (Ser807/811) (1: 500, Cell Signaling, #8516) and anti-Rb (1:200, Santa Cruz, sc-73598) diluted in Intercept Blocking Buffer (LI-COR, #927-60001) containing 0.1% Tween 20. The next day, the cells were washed with 200 uL PBS containing 0.1% Tween 20, 5×5 mins at room temperature with gentle shaking, and incubated with 50 uL secondary antibody, IRDye® 800CW Goat anti-Rabbit IgG (1:1000, LI-COR, #926-32211) and IRDye®680RD Goat anti-Mouse IgG (1:1000, LI-COR, #926-68070), in LI-COR blocking buffer with 0.2% Tween 20 for 1 hr at room temperature with gentle shaking. […]

[2] = system: 22RV1 cells; experiment: Cell growth inhibition of 22RV1 cells (CellTiter-Glo); assay type: cell-based; conditions: Homo sapiens, 22Rv1, 120 h, 5 days, CellTiter-Glo, read-out: 22RV1 Cell Growh GI50
Experimental: For cell growth assay, 22RV1 (ATCC, CRL-2505) cells were seeded in 96-well plates at 1000 cells/well in 90 μl of RPMI1640 growth medium containing 20% FBS and 1% Penicillin Streptomycin, and then incubated at 37° C. overnight. The following day, the test compound was administered to the cells by using 1000× compound stock solution prepared in DMSO at various concentrations. 1000× compound stock solution was first diluted in culturing medium to 10×, then 10 uL compound medium was added to each well in the cell plates. After administration of the compound, the cells were then incubated at 37° C. for 5 days. Upon completion, the plates were equilibrated at room temperature for approximately 10 min. 100 μl of CellTiter-Glo® Reagent (Promega) was added to each well. The plates were then incubated at room temperature for 10 min and luminescence was recorded by EnSpire plate reader (PerkinElmer).
22RV1 cells were obtained from American Type Culture Collection (ATCC, CRL-2505). 22RV1 cells were seeded in 96-well plates at 1000 cells/well in 90 μL of RPMI1640 growth medium containing 10% FBS and 1% Penicillin Streptomycin, and then incubated at 37° C. overnight. The following day, the test compound was administered to the cells by using 1000× compound stock solution prepared in DMSO at various concentrations. […], then 10 uL compound medium was added to each well in the cell plates. After administration of the compound, the cells were then incubated at […] for 5 days. Upon completion, the plates were equilibrated at room temperature for approximately 10 minutes. 100 μL of CellTiter-Glo® Reagent (Promega) was added to each well. The plates were then incubated at room temperature for 10 minutes and luminescence was recorded by EnSpire plate reader (PerkinElmer).

Structure (SMILES)	pIC50 [1]	GI50 [2] [µM]
CC(C)n1c(C(C)(C)O)nc2c(F)cc(-c3nc(N[C@@H]4[C@H](C)[C@H]5CO[C@H](O5)[C@H]4O)ncc3Cl)cc21 [Compound 13, (1S,2S,3R,4S,5R)-3-((5-chloro-4-(4-fluoro-2-(2-hydroxypropan-2-yl)-1-isopropyl-1H-benzo[d]imidazol-6-yl)pyrimidin-2-yl)amino)-2-methyl-6,8-dioxabicyclo[3.2.1]octan-4-ol]	6.82 to 7.40	0.12 to 0.45
CC(C)n1c([C@@H]2COC(=O)N2C)nc2c(F)cc(-c3nc(N[C@@H]4C[C@H]5CO[C@H](O5)[C@H]4O)ncc3Cl)cc21 [Compound 185, (R)-4-(6-(5-chloro-2-(((1S,3R,4S,5R)-4-hydroxy-6,8-dioxabicyclo[3.2.1]octan-3-yl)amino)pyrimidin-4-yl)-4-fluoro-1-isopropyl-1H-benzo[d]imidazol-2-yl)-3-methyloxazolidin-2-one]	6.00 to 6.82	0.45 to 3
Cc1c(-c2nc(N[C@@H]3C[C@H]4CO[C@H](O4)[C@H]3O)ncc2Cl)sc2c(C(C)C)cn(C(F)F)c(=O)c12 [Compound 231, 2-(5-chloro-2-(((1S,3R,4S,5R)-4-hydroxy-6,8-dioxabicyclo[3.2.1]octan-3-yl)amino)pyrimidin-4-yl)-5-(difluoromethyl)-7-isopropyl-3-methylthieno[3,2-c]pyridin-4(5H)-one]	6.82 to 7.40	0.45 to 3
COC(=O)N1CC[C@@H](c2nc3c(F)cc(-c4nc(N[C@@H]5[C@H](C)[C@H]6CO[C@H](O6)[C@H]5O)ncc4Cl)cc3n2C(C)C)C1 [Compound 23, methyl (R)-3-(6-(5-chloro-2-(((1S,2S,3R,4S,5R)-4-hydroxy-2-methyl-6,8-dioxabicyclo[3.2.1]octan-3-yl)amino)pyrimidin-4-yl)-4-fluoro-1-isopropyl-1H-benzo[d]imidazol-2-yl)pyrrolidine-1-carboxylate]	6.82 to 7.40	0.12 to 0.45
Cc1c(C(=O)N2CCOCC2)n(C(C)C)c2cc(-c3nc(N[C@@H]4C[C@H]5CO[C@H](O5)[C@H]4O)ncc3Cl)ccc2c1=O [Compound 214, 7-(5-chloro-2-(((1S,3R,4S,5R)-4-hydroxy-6,8-dioxabicyclo[3.2.1]octan-3-yl)amino)pyrimidin-4-yl)-1-isopropyl-3-methyl-2-(morpholine-4-carbonyl)quinolin-4(1H)-one]	< 6.00	> 3
CCCc1cn(C)c(=O)c2ccc(-c3nc(N[C@@H]4C[C@H]5CO[C@H](O5)[C@H]4O)ncc3Cl)cc12 [Compound 294, 6-(5-chloro-2-(((1S,3R,4S,5R)-4-hydroxy-6,8-dioxabicyclo[3.2.1]octan-3-yl)amino)pyrimidin-4-yl)-2-methyl-4-propylisoquinolin-1(2H)-one]	6.00 to 6.82	0.45 to 3

The next lines start with the values.

pIC50 [1]	GI50 [2] [µM]	Structure (SMILES)
6.00 to 6.82	≤ 0.12	Cc1c(C(C)(C)O)nnc2c(F)cc(-c3nc(N[C@@H]4C[C@H]5CO[C@H](O5)[C@H]4O)ncc3Cl)cc12 [Compound 279, (1S,3R,4S,5R)-3-((5-chloro-4-(8-fluoro-3-(2-hydroxypropan-2-yl)-4-methylcinnolin-6-yl)pyrimidin-2-yl)amino)-6,8-dioxabicyclo[3.2.1]octan-4-ol]
6.82 to 7.40	0.12 to 0.45	CC(C)(O)C1=Nc2c(F)cc(-c3nc(N[C@@H]4C[C@H]5CO[C@H](O5)[C@H]4O)ncc3Cl)cc2C12CCCC2 [Compound 33, (1S,3R,4S,5R)-3-((5-chloro-4-(7′-fluoro-2′-(2-hydroxypropan-2-yl)spiro[cyclopentane-1,3′-indol]-5′-yl)pyrimidin-2-yl)amino)-6,8-dioxabicyclo[3.2.1]octan-4-ol]
	≤ 0.12	[2H][C@H]1[C@@H](Nc2ncc(Cl)c(-c3cc(F)c4nc(C(C)(C)O)n(C(C)C)c4c3)n2)[C@H](O)[C@@H]2OC[C@H]1O2 [Compound 2, (1S,2S,3R,4S,5R)-3-((5-chloro-4-(4-fluoro-2-(2-hydroxypropan-2-yl)-1-isopropyl-1H-benzo[d]imidazol-6-yl)pyrimidin-2-yl)amino)-6,8-dioxabicyclo[3.2.1]octan-2-d-4-ol]
